This is an account of results in patent US20120053119A1, “THERAPEUTIC METHOD FOR INCREASING PANCREATIC BETA CELL MASS” (priority 2009, published 2012).

In test [1] the test system is Wnt signaling. Put plainly: Wnt signaling luciferase reporter assay (TOPflash/FOPflash) in INS-1 cells. Format: cell-based. For orientation: Reporter assays use an easily measured gene product as a stand-in for the process of interest.
Description: Wnt signaling is indicated by the value of TOPflash luciferase activity divided by FOPflash activity. A. Time course of the TOPflash:FOPflash ratio of INS-1 cell treated with 1 nM SDF-1. B. Ratio of TOPflash to FOPflash activity in INS-1 cells treated with increasing doses of SDF-1. C. […] All values are relative to the value of the untreated INS-1 cells. Data are normalized for transfection efficiency by co-transfected beta-galactosidase and represent means±S.D. of three experiments.
All values are relative to the first (leftmost) bar. Statistical significance is depicted as * (p<0.05) when compared with control values (leftmost bar). Data are normalized for transfection efficiency by co-transfected beta-galactosidase and represent means±S.D. of three experiments.
Wnt Signaling Luciferase Reporter Assay (TOPflash) INS-1 cells were plated into 24-well dishes 24 hr before transfection with TOPflash or the mutant, control reporter, FOPflash (1 microg/well) using LipofectAMINE2000 (Invitrogen). Various concentrations of SDF-1 or AMD3100 were then added to the culture medium 24 h following transfection for the indicated period of time. In studies in which inhibitors were used, LY294002 (50 microM), PD98059 (10 microM) or SH-5 (10 nM) were added concomitantly with SDF-1. In studies in which wild-type (wt), dominant-negative (dn) or contitutively-active (ca) forms of kinase were used, dnTCF7L2, dnGSK3beta, caGSK3beta, dnAkt, or caAkt (0.5 microg/well) was cotransfected with TOPflash. Luciferase activity in transfected cells was determined with a luciferase assay kit (Promega).
We examined SDF-1 induction of Wnt signaling using a Wnt signaling reporter assay (TOPflash/FOPflash). The TOPflash and FOPflash constructs contain the luciferase reporter either under the control of consensus TCF7L2-binding sites or mutated TCF7L2-binding sites, respectively. Luciferase activity was measured during 4 hr after addition of 1 nM SDF-1 (FIG. 3A).
Test [2] has as its system INS-1 or Min6 beta cells. The test can be described thus: SDF-1 mRNA by QPCR in injured beta cells. It counts as cell-based. The note with it: 3 to 20 hrs. How it is done:
FIG. 15. […] INS-1 or Min6 beta cells were treated for 3 to 20 hrs with the stress/apoptosis inducers, thapsigargin, streptozotocin (STZ), or mixtures of cytokines (listed at the bottom of the right lower panel). SDF-1 mRNA was measured in cell extracts by QPCR. Cytokines also stimulate the secretion of SDF-1 Protein (see new FIG. 21).

The test system of test [3] is INS-1 or MIN6 cells. Put plainly: Thapsigargin-induced apoptosis, caspase-3 activity assay. It counts as cell-based. Conditions: thapsigargin 1 microM, 16 h. How it is done: FIG. 6. Inhibition of apoptosis by SDF-1 in INS-1 and MIN-6 cells is reversed by knock-down of betacatenin. A. Western blot analysis of extracts from MIN6 cells that were mock treated, thapsigargin-treated (1 μM) and/or siRNA transfected (0.25 mg/ml), by using anti-serum against cleaved caspase-3 (upper panel), anti-serum against cleaved PARP (middle panel) and actin antibody (lower panel) as a loading control. B. Caspase-3 activity (fluorescence/mg proteinx105) of INS-1 or MIN6 cells mock treated, thapsigargin-treated (1 μM) and/or siRNA transfected (0.25 mg/ml). Results are presented as mean±SD for n=3 independent experiments, All values are relative to the first (leftmost) bar. […] Quantification of apoptotic cells is expressed as percent apoptotic cells relative to the total cells counted (lower left panel). […]
Thapsigargin-induced apoptosis in INS-1 or MIN6 cells For western immuoblot assay (Cell Signaling), MIN6 cells were seeded into 6 well plates then treated with 1 microM thapsigargin or DMSO control for 16 h and apoptotic activity was measured by Western immunoblotting using antisera specific for cleaved (active) caspase-3 (Cell signaling #9661) and cleaved (active) PARP (Cell signaling #9548). For caspase-3 assay, INS-1 cells or MIN-6 cells in 24-well plates were treated with 1 microM thapsigargin or DMSO for 16 hand caspase-3 activity was determined (Molecular Probes). […]

Test [4] has as its system INS-1 cells. The test can be described thus: ATP-lite cell viability assay, serum deprivation, SDF-1 with AMD3100. Conditions: serum-free, SDF-1 2 nM. It counts as cell-based. How it is done:
ATP lite cell viability assay: INS-1 cells were plated in 96 well plates. SDF-1 (2 nM) and AMD3100 were added at day 0, 2, 4 and cell viability was measured at day 6 using relative light units (RLU) as compared to control. N=6.
INS-1 cells were plated in 96 well plates in control medium (no serum) or a medium containing 2% serum. SDF-1 (2 nM) and SDF-1 (2 nM) along with various concentrations of AMD3100 (2 uM, 0.4 uM, 80 nM, 16 nM) were added to different cell groups incubated in serum-free medium at days 0, 2, 4, and cell viability was measured at day 6 using relative light units (RLU) as compared to control.

For test [5], the system named is INS-1 cells. The note with it: serum-free, SDF-1 2 nM, AMD3100 16 nM-2 uM, day 6. The method, then: INS-1 cells were plated in 96 well plates in control medium (no serum) or a medium containing 2% serum.
Test [6] has as its system Wnt signaling. Put plainly: Wnt signaling reporter (beta-galactosidase) in isolated islets of TopGal mouse. Format: cell-based. Conditions: added with SDF-1, isolated TopGal mouse islets.
Text: A. Isolated islets express reporter-driven beta-galactosidase. The dark regions mark the expression of beta-galactosidase, an indicator of the activation of the Wnt signaling reporter LacZ transgene. […] B. Polymerase chain reaction showing changes in beta-galactosidase mRNA levels in islets shown in panel A.
Isolated mouse pancreatic islets Mouse islets were isolated (Lacy PE (1994) Pancreatic islet cell transplant. Mt Sinai J. Med. 61:23-31.) from the pancreata of TopGal reporter mice transgenic for the LEF-LacZ Wnt signaling reporter (DasGupta R, Fuchs E (1999) Development. 1999 126:4557-4568.). Freshly isolated islets were treated for 4 hrs with SDF-1 with and without the addition of the Galphai/o inhibitor pertussis toxin (PTX) or the CXCR4 antagonist AMD3100. Betagalactosidase activity was determined by incubation of the islets with X-gal for 6 hrs.
Polymerase chain reaction analyses of betagalactosidase mRNA levels in isolated mouse islets Islets from TopGal mice were harvested after treatments with SDF-1, SDF-1+AMD3100, and SDF-1+pertussis toxin. RNA was extracted and beta galactosidase mRNA levels were measured by PCR using a SYBR Green QPCR kit (Stratagene) with the primers as described in Liu Z, Habener J F 2008 Glucagon-like Peptide-1 Activation of TCF7L2-dependent Wnt Signaling Enhances Pancreatic Beta Cell Proliferation. […]
Test [7] has as its system mice. The test can be described thus: Infusion of GLP-1(28-36) amide nonapeptide into mice, islet size. Format: in vivo. The note with it: infusions into mice, preliminary. An excerpt:
(§1) The inventors have done preliminary studies using GLP-1(28-36), a nine amino acid peptide (the “nonapeptide”) cleaved from the C-terminus of GLP-1 (SEQ ID NO:4). In the studies, the inventors used the peptide having an arginine amide at the C-terminus (FIAWLVKGR-amide). […] The nonapeptide works both when applied to cells in vitro/ex vivo and when infused into mice in vivo.

For test [8], the system named is pancreatic beta cell. The test can be described thus: Preliminary studies of nonapeptide on pancreatic beta cell survival and growth. Format: cell-based. Conditions: preliminary data.
Text: as §1

In test [9] the test system is INS-1 cells and mouse islets. Put plainly: GLP-1 pro-proliferative and cytoprotective actions. It counts as cell-based. Conditions: tentative.
Test [10] concerns insulin producing cells. The note with it: in vitro, equimolar quantities; cited from earlier work.

pKd: −log10 of the molar value. Ends that are not written are not given here.

What is called pKd is −log10 of the Kd, conventionally taken in molar units. Read a high pKd as a small Kd.

Take `COc1cccc(-c2cc(=O)c3ccccc3o2)c1N` [PD98059]: in test [1] (LY294002 50 microM, PD98059 10 microM, SH-5 10 nM), the “effect on SDF-1-stimulated TOPflash activity” value was “does not affect”. In addition, the “effect on basal level TOPflash activity” value in [1] (no SDF-1) is reported as “do not affect”.
Take `C/C=C(/C)C(=O)O[C@H]1C(C)=C2[C@H]([C@@H]1OC(=O)CCCCCCC)[C@@](C)(OC(C)=O)C[C@H](OC(=O)CCC)[C@@]1(O)[C@H]2OC(=O)[C@@]1(C)O` [Thapsigargin, reference compound]: the “SDF-1 expression (mRNA) in injured beta cells” value in test [2] is “induces SDF-1 expression”. Further, in test [3], the “induction of caspase-3 activity” value is on record as “threefold”.
For `CN(N=O)C(=O)N[C@H]1C(O)O[C@H](CO)[C@@H](O)[C@@H]1O` (mixture of isomers) [streptozotocin], in test [2], the “SDF-1 expression (mRNA) in injured beta cells” value is reported as “induces SDF-1 expression”.
As for `c1cc(CN2CCCNCCNCCCNCC2)ccc1CN1CCCNCCNCCCNCC1` [AMD3100], the “effect on SDF-1 mediated cell survival” value in [4] (AMD3100 16 nM-2 uM) is “partially and dose-dependently blocked”. For the same molecule, the “effective concentration for blocking SDF-1 mediated cell survival” value in test [4] (day 6) is on record as “around 1 uM”. Also, in test [5], the “effect on SDF-1 mediated insulin production” value was “partially and dose-dependently blocked”. In addition, the “effect on SDF-1 activation of luciferase activity (TOPflash/FOPflash)” value in test [1] (coincubation with increasing amounts) is reported as “antagonized”. The “effect on SDF-1-induced Wnt signaling response in TopGal islets” value in [6] is reported as “inhibition”.
With “FIAWLVKGR-amide (FIAWLVKGR-NH2) [GLP-1(28-36) amide nonapeptide]”, the “islet size in mice” value in test [7] was “enhances islet size”. In [8], the “pancreatic beta cell survival and growth” value is listed as “profound effects”.
As for “glucoincretin hormone, SEQ ID NO: 2, HAEGTFTSDVSSYLEGQAAKEFIAWLVKGRG [GLP-1]”, in [9], the pKd was 9.00 and the “cytoprotective actions (concentration)” value amounted to 10 nM.
For “Exendin-4: GLP-1 agonist peptide from Gila Monster salivary glands, SEQ ID NO: 3”, the “potency at causing insulin release” value in test [10] is “more potent than GLP-1”.
